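All cell lines were grown in 96-well plates and treated with compound for 48 hours. GI50 = concentration required for 50% inhibition of growth. Definition used: TGI = concentration required for complete inhibition of growth.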
Assays:
Assay in all cases: NCI anticancer screen, dose series, 48 h; in the data active = GI50 below about 0.43 µM; inactive = the rest
786-0 renal = system: 786-0 renal
A498 renal = system: A498 renal
A549 NSCLC = system: A549 NSCLC
ACHN renal = system: ACHN renal
BT-549 breast = system: BT-549 breast
CAKI-1 renal = system: CAKI-1 renal
CCRF-CEM leukemia = system: CCRF-CEM leukemia
COLO 205 colon = system: COLO 205 colon
DU-145 prostate = system: DU-145 prostate
EKVX NSCLC = system: EKVX NSCLC
HCC-2998 colon = system: HCC-2998 colon
HCT-116 colon = system: HCT-116 colon
HCT-15 colon = system: HCT-15 colon
HL-60(TB) leukemia = system: HL-60(TB) leukemia
HOP-62 NSCLC = system: HOP-62 NSCLC
HOP-92 NSCLC = system: HOP-92 NSCLC
HS 578T breast = system: HS 578T breast
HT29 colon = system: HT29 colon
IGROV1 ovarian = system: IGROV1 ovarian
K-562 leukemia = system: K-562 leukemia
KM12 colon = system: KM12 colon
LOX IMVI melanoma = system: LOX IMVI melanoma
M14 melanoma = system: M14 melanoma
MALME-3M melanoma = system: MALME-3M melanoma
MCF7 breast = system: MCF7 breast
MDA-MB-231 breast = system: MDA-MB-231 breast
MDA-MB-435 = system: MDA-MB-435
MOLT-4 leukemia = system: MOLT-4 leukemia
NCI-H226 lung = system: NCI-H226 lung
NCI-H23 lung = system: NCI-H23 lung
NCI-H460 lung = system: NCI-H460 lung
NCI-H522 lung = system: NCI-H522 lung
NCI/ADR-RES ovarian = system: NCI/ADR-RES ovarian
OVCAR-3 ovarian = system: OVCAR-3 ovarian
OVCAR-4 ovarian = system: OVCAR-4 ovarian
OVCAR-5 ovarian = system: OVCAR-5 ovarian
OVCAR-8 ovarian = system: OVCAR-8 ovarian
PC-3 prostate = system: PC-3 prostate
RPMI-8226 leukemia = system: RPMI-8226 leukemia
RXF 393 renal = system: RXF 393 renal
SF-268 CNS = system: SF-268 CNS
SF-295 CNS = system: SF-295 CNS
SF-539 CNS = system: SF-539 CNS
SK-MEL-2 melanoma = system: SK-MEL-2 melanoma
SK-MEL-28 melanoma = system: SK-MEL-28 melanoma
SK-MEL-5 melanoma = system: SK-MEL-5 melanoma
SK-OV-3 ovarian = system: SK-OV-3 ovarian
SN12C renal = system: SN12C renal
SNB-19 CNS = system: SNB-19 CNS
SNB-75 CNS = system: SNB-75 CNS
SW-620 colon = system: SW-620 colon
T-47D breast = system: T-47D breast
TK-10 renal = system: TK-10 renal
U251 CNS = system: U251 CNS
UACC-257 melanoma = system: UACC-257 melanoma
UACC-62 melanoma = system: UACC-62 melanoma
UO-31 renal = system: UO-31 renal
SR leukemia = system: SR leukemia

CCCN1CCC=C(c2ccc(Nc3nc(Nc4ccccc4C(N)=O)c4cc[nH]c4n3)c(C)c2)C1
24.4 µM: TGI (TK-10 renal)
active: GI50 (HL-60(TB) leukemia) 0.387 µM | GI50 (HOP-92 NSCLC) 0.158 µM | GI50 (HT29 colon) 0.407 µM | GI50 (MCF7 breast) 0.289 µM
> 21 µM: TGI (MOLT-4 leukemia)
> 25 µM: TGI (786-0 renal) | TGI (A498 renal) | TGI (A549 NSCLC) | TGI (ACHN renal) | TGI (BT-549 breast) | TGI (CAKI-1 renal) | TGI (CCRF-CEM leukemia) | TGI (DU-145 prostate) | TGI (EKVX NSCLC) | TGI (HCC-2998 colon) | TGI (HCT-116 colon) | TGI (HCT-15 colon) | TGI (HOP-62 NSCLC) | TGI (HS 578T breast) | TGI (IGROV1 ovarian) | TGI (KM12 colon) | TGI (LOX IMVI melanoma) | TGI (M14 melanoma) | TGI (MALME-3M melanoma) | TGI (MCF7 breast) | TGI (MDA-MB-231 breast) | TGI (MDA-MB-435) | TGI (NCI-H226 lung) | TGI (NCI-H23 lung) | TGI (NCI-H460 lung) | TGI (NCI-H522 lung) | TGI (NCI/ADR-RES ovarian) | TGI (OVCAR-3 ovarian) | TGI (OVCAR-4 ovarian) | TGI (OVCAR-5 ovarian) | TGI (OVCAR-8 ovarian) | TGI (PC-3 prostate) | TGI (RXF 393 renal) | TGI (SF-268 CNS) | TGI (SF-295 CNS) | TGI (SF-539 CNS) | TGI (SK-MEL-28 melanoma) | TGI (SK-MEL-5 melanoma) | TGI (SK-OV-3 ovarian) | TGI (SN12C renal) | TGI (SNB-19 CNS) | TGI (SNB-75 CNS) | TGI (SW-620 colon) | TGI (T-47D breast) | TGI (U251 CNS) | TGI (UACC-257 melanoma) | TGI (UACC-62 melanoma) | TGI (UO-31 renal)
inactive: GI50 (786-0 renal) 17.3 µM | GI50 (A498 renal) 11.1 µM | GI50 (A549 NSCLC) 1.89 µM | GI50 (ACHN renal) 15.4 µM | GI50 (BT-549 breast) 17.2 µM | GI50 (CAKI-1 renal) 9.49 µM | GI50 (CCRF-CEM leukemia) 3.32 µM | GI50 (COLO 205 colon) 2.37 µM | GI50 (DU-145 prostate) 3.76 µM | GI50 (EKVX NSCLC) > 17.8 µM | GI50 (HCC-2998 colon) 5.7 µM | GI50 (HCT-116 colon) 2.56 µM | GI50 (HCT-15 colon) 8.98 µM | GI50 (HOP-62 NSCLC) > 20 µM | GI50 (HS 578T breast) > 17.8 µM | GI50 (IGROV1 ovarian) 8.29 µM | GI50 (K-562 leukemia) 4.42 µM | GI50 (KM12 colon) 9.48 µM | GI50 (LOX IMVI melanoma) 1.77 µM | GI50 (M14 melanoma) 4.77 µM | GI50 (MALME-3M melanoma) 5.35 µM | GI50 (MDA-MB-231 breast) > 16.6 µM | GI50 (MDA-MB-435) 3.15 µM | GI50 (MOLT-4 leukemia) 7.79 µM | GI50 (NCI-H226 lung) > 17.7 µM | GI50 (NCI-H23 lung) 8.16 µM | GI50 (NCI-H460 lung) 2.46 µM | GI50 (NCI-H522 lung) 8.66 µM | GI50 (NCI/ADR-RES ovarian) > 22.4 µM | GI50 (OVCAR-3 ovarian) 17.9 µM | GI50 (OVCAR-4 ovarian) > 14.6 µM | GI50 (OVCAR-5 ovarian) 4.01 µM | GI50 (OVCAR-8 ovarian) 10.1 µM | GI50 (PC-3 prostate) > 23.4 µM | GI50 (RPMI-8226 leukemia) 5.53 µM | GI50 (RXF 393 renal) 11 µM | GI50 (SF-268 CNS) > 25 µM | GI50 (SF-295 CNS) > 25 µM | GI50 (SF-539 CNS) 17.9 µM | GI50 (SK-MEL-2 melanoma) 2.51 µM | GI50 (SK-MEL-28 melanoma) > 23.8 µM | GI50 (SK-MEL-5 melanoma) 13.2 µM | GI50 (SK-OV-3 ovarian) 9.68 µM | GI50 (SN12C renal) > 21.1 µM | GI50 (SNB-19 CNS) > 25 µM | GI50 (SNB-75 CNS) > 25 µM | GI50 (SW-620 colon) 1.48 µM | GI50 (T-47D breast) > 18.3 µM | GI50 (TK-10 renal) 4.61 µM | GI50 (U251 CNS) 9.78 µM | GI50 (UACC-257 melanoma) 2.65 µM | GI50 (UACC-62 melanoma) 14.4 µM | GI50 (UO-31 renal) 2.98 µM
8.68 µM: TGI (COLO 205 colon)
2.04 µM: TGI (HOP-92 NSCLC)
15.4 µM: TGI (SK-MEL-2 melanoma)
6.84 µM: TGI (HL-60(TB) leukemia)
> 21.7 µM: TGI (RPMI-8226 leukemia)
> 13.2 µM: TGI (HT29 colon)
> 22.8 µM: TGI (K-562 leukemia)

C/C(=N/O)c1ccc(Nc2cc(-n3ccnc3)c3ccccc3n2)cc1
18.5 µM: TGI (KM12 colon) | TGI (MOLT-4 leukemia)
90.8 µM: TGI (ACHN renal)
38.9 µM: TGI (HCT-116 colon)
inactive: GI50 (786-0 renal) 4.83 µM | GI50 (A498 renal) 27.6 µM | GI50 (A549 NSCLC) 7.21 µM | GI50 (ACHN renal) 18.6 µM | GI50 (BT-549 breast) 16.8 µM | GI50 (CAKI-1 renal) 26.6 µM | GI50 (COLO 205 colon) 11.8 µM | GI50 (DU-145 prostate) 38.1 µM | GI50 (EKVX NSCLC) 22 µM | GI50 (HCC-2998 colon) 48 µM | GI50 (HCT-116 colon) 14.6 µM | GI50 (HCT-15 colon) 14.3 µM | GI50 (HOP-62 NSCLC) 53.2 µM | GI50 (HOP-92 NSCLC) 38.3 µM | GI50 (HS 578T breast) 12.9 µM | GI50 (HT29 colon) 8.34 µM | GI50 (IGROV1 ovarian) 15.1 µM | GI50 (K-562 leukemia) 3.27 µM | GI50 (KM12 colon) 2.64 µM | GI50 (M14 melanoma) 5.75 µM | GI50 (MALME-3M melanoma) 11.4 µM | GI50 (MCF7 breast) 85.3 µM | GI50 (MDA-MB-231 breast) 8.81 µM | GI50 (MDA-MB-435) 36.4 µM | GI50 (MOLT-4 leukemia) 2.95 µM | GI50 (NCI-H226 lung) 30 µM | GI50 (NCI-H23 lung) 42 µM | GI50 (NCI-H460 lung) 21.5 µM | GI50 (NCI-H522 lung) 35.8 µM | GI50 (NCI/ADR-RES ovarian) 42.9 µM | GI50 (OVCAR-3 ovarian) 22.5 µM | GI50 (OVCAR-5 ovarian) 86.6 µM | GI50 (OVCAR-8 ovarian) 6.01 µM | GI50 (PC-3 prostate) 3.69 µM | GI50 (RPMI-8226 leukemia) 0.716 µM | GI50 (SF-268 CNS) > 100 µM | GI50 (SF-295 CNS) 15.1 µM | GI50 (SF-539 CNS) 11.5 µM | GI50 (SK-MEL-2 melanoma) 38.5 µM | GI50 (SK-MEL-28 melanoma) 70.4 µM | GI50 (SK-MEL-5 melanoma) 16.3 µM | GI50 (SK-OV-3 ovarian) > 100 µM | GI50 (SN12C renal) 39.5 µM | GI50 (SNB-19 CNS) 75.3 µM | GI50 (SNB-75 CNS) 7.04 µM | GI50 (SR leukemia) 3.78 µM | GI50 (SW-620 colon) 41.8 µM | GI50 (T-47D breast) 9.96 µM | GI50 (TK-10 renal) 16.4 µM | GI50 (U251 CNS) 27.3 µM | GI50 (UACC-257 melanoma) 3.77 µM | GI50 (UACC-62 melanoma) 27.8 µM | GI50 (UO-31 renal) 15.3 µM
94 µM: TGI (A498 renal)
active: GI50 (CCRF-CEM leukemia) 0.126 µM
89 µM: TGI (NCI-H226 lung)
73.5 µM: TGI (SNB-75 CNS)
84.7 µM: TGI (BT-549 breast)
52.8 µM: TGI (IGROV1 ovarian)
37.3 µM: TGI (HCT-15 colon)
9.35 µM: TGI (UACC-257 melanoma)
1.99 µM: TGI (CCRF-CEM leukemia)
25.5 µM: TGI (OVCAR-8 ovarian)
38.2 µM: TGI (MDA-MB-231 breast)
> 100 µM: TGI (786-0 renal) | TGI (CAKI-1 renal) | TGI (COLO 205 colon) | TGI (DU-145 prostate) | TGI (EKVX NSCLC) | TGI (HCC-2998 colon) | TGI (HOP-62 NSCLC) | TGI (HOP-92 NSCLC) | TGI (HS 578T breast) | TGI (HT29 colon) | TGI (K-562 leukemia) | TGI (M14 melanoma) | TGI (MCF7 breast) | TGI (MDA-MB-435) | TGI (NCI-H23 lung) | TGI (NCI-H460 lung) | TGI (NCI-H522 lung) | TGI (NCI/ADR-RES ovarian) | TGI (OVCAR-5 ovarian) | TGI (PC-3 prostate) | TGI (SF-268 CNS) | TGI (SF-295 CNS) | TGI (SF-539 CNS) | TGI (SK-MEL-2 melanoma) | TGI (SK-MEL-28 melanoma) | TGI (SK-MEL-5 melanoma) | TGI (SK-OV-3 ovarian) | TGI (SN12C renal) | TGI (SNB-19 CNS) | TGI (SR leukemia) | TGI (SW-620 colon) | TGI (T-47D breast) | TGI (TK-10 renal) | TGI (U251 CNS) | TGI (UACC-62 melanoma) | TGI (UO-31 renal)
36.4 µM: TGI (A549 NSCLC)
44.5 µM: TGI (MALME-3M melanoma)
91.3 µM: TGI (OVCAR-3 ovarian)
4.42 µM: TGI (RPMI-8226 leukemia)

Source: PubChem BioAssay (NCI)
